≈ marks a conversion by molar mass, not a printed value.
What was measured:
Assay type in all cases: cell-based
A. fumigatus s 1008 = assay: In vitro MIC, NCCLS M38P broth method (RPMI 1640/MOPS pH7), Aspergillus fumigatus; details: A. fumigatus strain 1008
Candida = assay: In vitro MIC, NCCLS M27A, Candida species; design: MIC, Candida albicans 1.549 / MIC, Candida albicans Y-01-19 / MIC, C. krusei 766-1 / MIC, C. krusei Q. C / MIC, Candida tropicalis ATCC / MIC, C. glabrata 90030: unit not given beside the values; MIC, Candida albicans A 26 / MIC, C. parapsilosis Q. C.: unit not given here; details: for MIC, C. glabrata 90030: C. glabrata strain 90030; for MIC, C. krusei 766-1: C. krusei strain 766-1; for MIC, C. krusei Q. C: C. krusei strain Q. C; for MIC, C. parapsilosis Q. C.: C. parapsilosis strain Q. C.; for MIC, Candida albicans 1.549: Candida albicans strain 1.549; for MIC, Candida albicans A 26: Candida albicans strain A 26; for MIC, Candida albicans Y-01-19: Candida albicans strain Y-01-19
Cryptococcus neoformans = assay: In vitro MIC, NCCLS M27A, Cryptococcus neoformans; design: MIC, C. neoformans I: unit not given beside the values; MIC, C. neoformans M 106: unit not given here; details: for MIC, C. neoformans I: C. neoformans strain I; for MIC, C. neoformans M 106: C. neoformans strain M 106
Histoplasma capsulatum = tested on: Histoplasma capsulatum

| SMILES | MIC, A. fumigatus 1008 (A. fumigatus s 1008) | MIC, C. glabrata 90030 (Candida) | MIC, C. krusei 766-1 (Candida) | MIC, C. krusei Q. C (Candida) | MIC, C. parapsilosis Q. C. (Candida) | MIC, Candida albicans 1.549 (Candida) | MIC, Candida albicans A 26 (Candida) | MIC, Candida albicans Y-01-19 (Candida) | MIC, Candida tropicalis ATCC (Candida) | MIC, C. neoformans I (Cryptococcus neoformans) | MIC, C. neoformans M 106 (Cryptococcus neoformans) | MIC, H. capsulatum (Histoplasma capsulatum) [µg/mL] |
| --- | --- | --- | --- | --- | --- | --- | --- | --- | --- | --- | --- | --- |
| COc1ccc(F)cc1N1CCN(c2ccc(-n3c(C)nn([C@H](C)[C@](O)(Cn4cncn4)c4ccc(F)cc4F)c3=O)cc2)CC1 [Compound 27, 2-{[1R2R/1S2S]-2-(2,4-Difluorophenyl)-2-hydroxy-1-methyl-3-(1H-1,2,4-triazol-1-yl)propyl}-4-{4-[4-(2-methoxy-5-fluorophenyl)-1-piperazinyl]phenyl}-3-(2H,4H)-5-methyl-1,2,4-triazolone] | >16 | 1.00 | 2.00 | 0.50 | <0.03 | 1.00 | <0.03 | 0.50 | <0.03 | <0.03 | <0.03 | < 0.03 |
| Cc1ccc(Cl)cc1N1CCN(c2ccc(-n3cnn([C@H](C)[C@](O)(Cn4cncn4)c4ccc(F)cc4F)c3=O)cc2)CC1 [Compound 21, 2-{[1R2R/1S2S]-2-(2,4-Difluorophenyl)-2-hydroxy-1-methyl-3-(1H-1,2,4-triazol-1-yl)propyl}-4-{4-[4-(5-chloro-2-methylphenyl)-1-piperazinyl]phenyl}-3-(2H,4H)-1,2,4-triazolone] | 1.00 | 0.50 | 0.50 | 0.25 | 0.06 | 0.25 | <0.03 | 0.25 | <0.03 | <0.03 | <0.03 | 0.12 (≈ 0.193 µM) |
| CCc1ccccc1N1CCN(c2ccc(-n3c(C)nn([C@H](C)[C@@](O)(Cn4cncn4)c4ccc(F)cc4F)c3=O)cc2)CC1 [Compound 32, 2-{[1R2S/1S2R]-2-(2,4-Difluorophenyl)-2-hydroxy-1-methyl-3-(1H-1,2,4-triazol-1-yl)propyl}-4-{4-[4-(2-ethylphenyl)-1-piperazinyl]phenyl}-3-(2H,4H)-5-methyl-1,2,4-triazolone] | >16 | 2.00 | >16 | 4.00 | 0.50 | >16 | <0.03 | 4.00 | <0.03 | 0.50 | 0.50 | 0.25 (≈ 0.407 µM) |
| C[C@@H](n1ncn(-c2ccc(N3CCN(c4ccc(F)cc4)CC3)cc2)c1=O)[C@](O)(Cn1cncn1)c1ccc(F)cc1F [Compound 11, 2-{[1R2R/1S2S]-2-(2,4-Difluorophenyl)-2-hydroxy-1-methyl-3-(1H-1,2,4-triazol-1-yl)propyl}-4-{4-[4-(4-fluorophenyl)-1-piperazinyl]phenyl}-3-(2H,4H)-1,2,4-triazolone] | 0.25 | 0.25 | 0.25 | 0.12 | <0.03 | 0.06 | <0.03 | 0.12 | <0.03 | <0.03 | <0.03 | < 0.03 |
| C[C@@H](n1ncn(-c2ccc(N3CCN(c4ccc(F)cc4)CC3)cc2)c1=O)[C@@](O)(Cn1cncn1)c1ccc(F)cc1F [Compound 12, 2-{[1R2S/1S2R]-2-(2,4-Difluorophenyl)-2-hydroxy-1-methyl-3-(1H-1,2,4-triazol-1-yl)propyl}-4-{4-[4-(4-fluorophenyl)-1-piperazinyl]phenyl}-3-(2H,4H)-1,2,4-triazolone] | >16 | 4.00 | >16 | 8.00 | 0.06 | 4.00 | <0.03 | 8.00 | <0.03 | 0.12 | 0.25 | < 0.03 |
| Cc1ccc(N2CCN(c3ccc(-n4cnn([C@H](C)[C@](O)(Cn5cncn5)c5ccc(F)cc5F)c4=O)cc3)CC2)cc1C [Compound 23, 2-{[1R2R/1S2S]-2-(2,4-Difluorophenyl)-2-hydroxy-1-methyl-3-(1H-1,2,4-triazol-1-yl)propyl}-4-{4-[4-(3,4-dimethylphenyl)-1-piperazinyl]phenyl}-3-(2H,4H)-1,2,4-triazolone] | 1.00 | 0.50 | 0.50 | 0.25 | <0.03 | 0.25 | <0.03 | 0.50 | <0.03 | <0.03 | <0.03 | 0.06 (≈ 0.0999 µM) |
| Cc1nn([C@H](C)[C@@](O)(Cn2cncn2)c2ccc(F)cc2F)c(=O)n1-c1ccc(N2CCN(c3ccc(Cl)cc3Cl)CC2)cc1 [Compound 34, 2-{[1R2S/1S2R]-2-(2,4-Difluorophenyl)-2-hydroxy-1-methyl-3-(1H-1,2,4-triazol-1-yl)propyl}-4-{4-[4-(2,4-dichlorophenyl)-1-piperazinyl]phenyl}-3-(2H,4H)-5-methyl-1,2,4-triazolone] |  | 0.50 | 2.00 | 1.00 | 0.25 | 1.00 | <0.03 | 1.00 | <0.03 | 0.25 | <0.03 | 0.12 (≈ 0.183 µM) |

From patent publication US6670363B1, “Azole compounds as therapeutic agents for fungal infections” (Ranbaxy Laboratories Limited, priority 2000, dated 2003)
